Among the data in PubChem BioAssay AID504313 (Emory University Molecular Libraries Screening Center, 2011) are IC50 values, retold here.

Active and inactive are the calls of the source. How the calls were made is not given here.

The target in the test is X-box-binding protein 1 (Homo sapiens) (UniProt P17861). The test is described as follows: inhibitors of XBP1 reporter signal, dose response, counter-screen, cell-based (AID 504313).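 Further: CHO cells carrying an XBP1 reporter stimulated with tunicamycin; potency is for inhibition of the tunicamycin-induced reporter signal.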 The following applies: XBP1 reporter cell assay, percent of control.
For `O=C(C1=C(c2ccccc2)C(=O)c2ccccc2C1=O)c1ccccc1`, the IC50 entry is “inactive”.

Regarding `CS(=O)(=O)c1nc(-c2ccco2)cc(C(F)(F)F)n1`, the IC50 result was “inactive”.

For `O=C1C(N2CCOCC2)=C(n2nnc3ccccc32)C(=O)c2ccccc21`, the IC50 entry was “inactive”.

For the compound `Cc1ccc(NC(=O)c2nc[nH]c2C(=O)N[C@@H](C)C(=O)OC(C)(C)C)cc1`, the IC50 is 4.14 µM.

Take `O=S(=O)(/C(=C/c1ccc(C(F)(F)F)cc1)c1nc2ccccc2[nH]1)c1ccccc1`: the IC50 is 2.22 µM.

Take `CC(C)(C)c1cc(S(=O)(=O)CCc2ccccn2)cc(C(C)(C)C)c1F`: the IC50 result was “inactive”.

As to `O=C(c1ccc(Cl)cc1)N1CCC(O)(CSc2ccc(Cl)cc2Cl)CC1`, the IC50 was > 10 µM (inactive).

As to `O=C(Nc1ccc(F)cc1)Nc1ccc(N2CCCC2)c(S(=O)(=O)Nc2ccccc2Cl)c1`, the IC50 entry was “inactive”.

In the case of `CCN1C=CC(=C2C(=O)c3ccccc3C2=O)C=C1`, the IC50 result was “inactive”.

For `COc1ccc(/C=C2\SC(=S)N(CCCC(=O)Nc3ccc(O)cc3)C2=O)cc1`, the IC50 is below 0.16 µM.

In the case of `NC(=O)c1ccc(C(F)(F)F)n(Cc2c(Cl)cccc2Cl)c1=O`, the IC50 result was “inactive”.

For the compound `Cc1ccc(NC2=C/C(=N\S(=O)(=O)c3cccs3)c3ccccc3C2=O)c(C)c1`, the IC50 is 0.55 µM.

Take `COc1cccc(NC(=O)CSc2nnc(-c3cc(C)n(-c4ccccc4)c3C)o2)c1`: the IC50 is 0.41 µM.

As to `COc1ccc(C(=O)/C=C/C(=O)N(CC(=O)NC2CCCCC2)Cc2ccc(F)cc2)c(O)c1`, the IC50 is 2.25 µM.

In the case of `Cc1ccc(-c2[nH]ncc2/C=N/n2c(COc3ccccc3)nc3ccccc3c2=O)cc1`, the IC50 entry was “inactive”.

With `CNc1ccc2oc(C[C@H]3O[C@@]4(CC[C@H]3C)O[C@H]([C@H](C)C(=O)c3ccc[nH]3)[C@H](C)C[C@H]4C)nc2c1C(=O)O`, the IC50 is 1.41 µM.

As for `COc1ccc2nc(Nc3nc(CSc4nc5ccccc5[nH]4)cc(=O)[nH]3)nc(C)c2c1`, the IC50 is > 10 µM (inactive).

As for `O=C(/C=C/c1ccccc1)Nc1cccc(C(=O)O)c1`, the IC50 result is “inactive”.

Turning to `COc1ccccc1NCC(O)COc1ccc(C(C)(C)C)cc1` (configuration not stated), the IC50 result was “inactive”.

For `CCCCC(CC)C(=O)Oc1ccc(O)c(C(C)(C)C)c1` (configuration not stated), the IC50 entry is “inactive”.

With `CS(=O)(=O)c1ncc(Cl)c(C(=O)Nc2ccc(N3CCOCC3)cc2)n1`, the IC50 entry was “inactive”.

Turning to `Oc1cccc(-c2nc3c4c(ncn3n2)-c2ccccc2CC42CCCC2)c1`, the IC50 is > 10 µM (inactive).

In the case of `COc1ccc(NC(=O)/C(Cl)=C(/Cl)S(=O)Cc2ccccc2Cl)cn1` (configuration not stated), the IC50 was 0.92 µM.

For `Nc1cc(Cl)ccc1Oc1ccc(Cl)cc1`, the IC50 result was “inactive”.

`Cc1ccc(NC(=O)NC(=O)CN2C(=O)NC3(CCCCCCC3)C2=O)c(C)c1`: the IC50 was > 10 µM (inactive).

As for `COc1ccc(/C=N\NC(=O)COc2ccc(C(C)(C)C)cc2)cc1Cn1nc(C)cc1C`, the IC50 entry was “inactive”.

On to `Cc1cccc(NC(=O)CSc2nc(C)c(CC(=O)c3ccc(Br)cc3)c(C)c2C#N)c1C`, for which the IC50 result was “inactive”.

Consider `C=C(C)COc1ccc(-c2n[nH]c(C)c2-c2ccccc2OC)c(O)c1`, for which the IC50 was > 10 µM (inactive).

Take `FC(F)(F)c1cc(-c2cccs2)nc(-n2cc(Br)cn2)n1`: the IC50 is > 10 µM (inactive).

Turning to `Cn1c(=O)c(C(=O)Nc2ncccc2O)c(O)c2ccccc21`, the IC50 was > 10 µM (inactive).

In the case of `C=CCOC(=O)C1=C(C)NC(C)=C(C(=O)OCC=C)C1/C=C/c1ccccc1`, the IC50 result was “inactive”.

In the case of `O=[N+]([O-])c1ccc(COc2ccc(-c3[nH]ncc3-c3ccccc3)c(O)c2)cc1`, the IC50 was > 10 µM (inactive).

`Cc1cccc(OCc2n(CC(=O)OC3CC(C)CCC3C(C)C)c3ccccc3[n+]2C)c1` (configuration not stated): the IC50 was > 10 µM (inactive).

In the case of `Cc1ccc(N(c2ncnc(N)c2[N+](=O)[O-])C2CCCCC2)cc1`, the IC50 was > 10 µM (inactive).

Turning to `NC(=O)c1ccc(C(F)(F)F)n(Cc2ccc(Cl)cc2)c1=O`, the IC50 result was “inactive”.

Consider `Cc1cccc(NC2=C/C(=N/S(=O)(=O)c3cccs3)c3ccccc3C2=O)c1`, for which the IC50 was 1.31 µM.

For `CCCOC(=O)c1ccc(Oc2cn[nH]c2-c2ccc(OCC)cc2O)cc1`, the IC50 result is “inactive”.

For the compound `CC(C)(C)c1ccc(C2CC2C(=O)N/N=C\c2ccc[nH]2)cc1` (configuration not stated), the IC50 result is “inactive”.

As to `COc1ccc(Cn2c(SCc3cc(C)ccc3C)nc3cc(OC)c(OC)cc3c2=N)cc1`, the IC50 entry is “inactive”.

As for `COc1ccc(C2CC(c3c(-c4ccccc4)c4cc(Cl)ccc4[nH]c3=O)=NN2S(C)(=O)=O)cc1OC` (configuration not stated), the IC50 result was “inactive”.

`CCOC(=O)/C(=C\c1ccc(OC(F)F)cc1)C1=Nn2c(nnc2-c2ccc(Cl)cc2)SC1`: the IC50 was 4.7 µM.

On to `Cc1ccc(-n2c(Cl)c(Cl)nc(Cl)c2=O)cc1`, for which the IC50 is 2.32 µM.

Consider `Cc1cccc(OCC(=O)N/N=C\C=C\c2ccc3c(c2)OCO3)c1C`, for which the IC50 was > 10 µM (inactive).

Turning to `Cc1cc(C)c(S(=O)(=O)ON2C(=O)c3ccccc3C2=O)cc1C`, the IC50 was > 10 µM (inactive).

Regarding `O=C(CSc1ncnc2[nH]ncc12)Nc1nc(-c2ccc(F)c(F)c2)cs1`, the IC50 was > 10 µM (inactive).

For `CCOc1ccc(/C=N/NC(=O)c2cc(-c3ccco3)nc3ccccc23)cc1`, the IC50 result is “inactive”.

Consider `O=C(Nc1ccccc1Cl)/C(Cl)=C(\Cl)S(=O)c1ccccc1` (configuration not stated), for which the IC50 is 2.4 µM.

For the compound `Cc1ccc(-c2nnc(-c3ccc(NC(=O)Cc4cccs4)cc3)o2)cc1`, the IC50 was > 10 µM (inactive).

As to `CC(C)NC(=O)c1ccccc1NC(=O)/C=C/c1cccc([N+](=O)[O-])c1`, the IC50 was > 10 µM (inactive).

Regarding `CCCCC(CC)Cn1c2nc3ccccc3nc2c2c(=N)oc(C)nc21` (configuration not stated), the IC50 was > 10 µM (inactive).

Regarding `Cc1cc(C)c(S(=O)(=O)c2ccccc2)c(OC(=O)c2cc(F)c(F)cc2Cl)n1`, the IC50 result was “inactive”.

With `OC(COCC(F)(F)C(F)(F)C(F)(F)C(F)F)Cn1c2ccccc2c2ccccc21` (configuration not stated), the IC50 entry is “inactive”.

On to `O/N=C(\c1ccc(Cl)cc1Cl)c1ncc(C(F)(F)F)cc1Cl`, for which the IC50 is 6.07 µM.

In the case of `Cc1ccc(C)c(NC(=S)NC(NC(=O)/C=C/c2ccccc2)C(Cl)(Cl)Cl)c1` (configuration not stated), the IC50 was > 10 µM (inactive).

For the compound `O=C1C(C2=NC(c3ccccn3)C3C(=O)N(c4ccc(OC(F)(F)F)cc4)C(=O)C23)=C(O)c2ccccc21` (configuration not stated), the IC50 entry was “inactive”.

For the compound `CC(C)(C)OC(=O)NCCc1nnc(S(=O)(=O)Cc2ccc(Cl)cc2Cl)o1`, the IC50 is 4.44 µM.

Consider `Cc1cc(C)n(-c2nc(N(c3ccccc3)c3ccccc3)nc(-n3nc(C)cc3C)n2)n1`, for which the IC50 result is “inactive”.

With `O=C(OCC(F)(F)F)c1cccc(COc2ccc3ccccc3c2)c1`, the IC50 is 0.98 µM.

On to `COc1ccc(N=CC2=C(O)c3ccccc3C2=O)c(OC)c1`, for which the IC50 result was “inactive”.

Regarding `CN(C(=O)CCl)C1CCCc2ccccc21` (configuration not stated), the IC50 entry is “inactive”.

As to `CC1=Nc2nc(N3CCCCC3)c(C#N)c3c4c(nc(c23)N1)N(c1ccc(C(C)C)cc1)C(=O)C4`, the IC50 result was “inactive”.

For the compound `OC(CNCCc1ccc(C(F)(F)F)cc1)COc1ccc2ccccc2c1` (configuration not stated), the IC50 entry is “inactive”.
